Results from patent publication US8802630B2, “Method of treating brain injury” (Buddhist Tzu Chi General Hospital, priority 2011, dated 2014).
Where no end group is shown, it is not given here.

Columns and labels:
[1] = tested on: collagenase-induced ICH rats; assay: Assessment of brain edema (brain water content, wet/dry method); format: in vivo; details: day 3 post-ICH
Source text: Brain edema formation peaks on day 3 post-ICH (Xue et al., 2000; Yang et al., 1994). […] Rats were randomly used in the assessment of brain water content by using a common wet/dry method as previously described (Chu et al., 2004). Briefly, 3 days post-ICH, rats were anesthetized and decapitated. The brains were removed and separated into contralateral, ipsilateral hemispheres and cerebellum. The cerebellum was used as an internal control. Sample was weighed to obtain the wet weight immediately, and then dried in an oven at 100° C. for 24 hours to obtain the dry weight. The water content was expressed as a percentage of the wet weight: [(wet weight)−(dry weight)](wet weight)^−1×100%.

[2] = tested on: collagenase-induced ICH rats; assay: Assessment of hemorrhagic volume (spectrophotometric assay); format: in vivo
Protocol: Rats were randomly used in assessment of hemorrhagic volume at 24 hours (day 1) post-ICH. The accumulated hemorrhagic volume was quantified by a spectrophotometric assay as reported by Park et al., with minor modification (Park et al., 2005). Briefly, both contralateral and ipsilateral hemispheres were obtained after transcardial perfusion. PBS was added to the individual hemispheres to make-up a total of 3 ml volume for homogenization and centrifugation (15000 g, 30 minutes). The supernatant (40 μl) was reacted with Drabkin's reagent (160 μl, Sigma) for 15 minutes at room temperature. Optical density was measured at 540 nm with a spectrophotometer (Molecular Devices OptiMax, USA). Equivalent hemorrhage volume (μl) of the supernatant was calculated from a standard curve obtained with known amounts of the blood.

[3] = tested on: collagenase-induced ICH rats; assay: Assessment of blood-brain barrier disruption (Evans blue extravasation); format: in vivo
Protocol: Rats were randomly used in assessment of the vascular permeability of BBB with a modified Evans blue extravasation method (Esen et al., 2005). Briefly, 70 hours post-ICH, rats were anesthetized with chloral hydrate (0.4 g/kg) and infused, via the right femoral vein with 37° C. Evans blue dyes (2% in 0.9% normal saline, 4 ml/kg) over 5 minutes. Two hours later, the rats were perfused with 300 ml normal saline to wash out any remaining dye in the blood vessels and then brains were removed and sectioned into 2 mm thickness by a rodent brain matrix. Coronal brain sections were taken starting at +2 mm and ending at −4 mm from Bregma. BBB permeability was evaluated in the striatum, cortex and cerebellum. The cerebellum was used as an internal control. Each portion was weighed immediately and placed in 1 ml of 0.9% normal saline for homogenization of the sample. For protein precipitation, 1 ml of 60% trichloroacetic acid solution was added and vortexed for 2 minutes. The mixture was subsequently cooled for 30 minutes and centrifuged (1500 g at 4° C.) for another 30 minutes. The absorbance of Evans blue in the supernatant was then measured with a spectrophotometer (Molecular Devices OptiMax, USA) at 610 nm The dye concentration was expressed as μg/g of tissue weight and calculated from a standard curve obtained from known amounts of the dye.

[4] = tested on: microglial cells; assay: Immunohistochemistry of microglial activation (OX-42, ED-1); format: in vivo, rats; details: perihematomal region; L-UCN 2.5 μg/kg i.p.; day 3 post-ICH
Protocol: (§1) Rats were used in immunohistochemistry on day 3 post-ICH. Rats were anesthetized as described above and transcardially perfused with cold 0.1 M phosphate buffer saline followed by cold 4% paraformaldehyde in 0.1 M phosphate-buffered saline. Brains were removed and immersed in 4% paraformaldehyde for 24 hours and 30% sucrose for another 24 hours. Coronal brain sections (20 μm thickness) were cut and collected from 0.0 to −2.0 mm AP to bregma using a cryostat (Leica CM 1900). Three 20 μm coronal sections, representing the core of the hematoma, were taken starting at 0.0 mm from bregma (the needle entry site). Additional adjacent serial coronal sections taken through the center of the hemorrhagic lesion were processed for the counting of marker-specific cells (Jung et al., 2004). Antibodies of OX-42 (1:100; BD, USA), ED-1 (1:100; BD, USA) were used as microglial markers, and NeuN (1:200, Chemicon, USA) was used as neuron marker. Tissues sections were incubated with the primary antibodies overnight at 4° C. […] The numbers of positive cells in the same focal plane were counted in 6 regions of interest around the ipsilateral striatum (perihematomal region, 1 mm^2) All cell counting was done by an independent investigator counted the positive cells.

[5] = tested on: NeuN+ cells (neurons); assay: Immunohistochemistry of neuronal loss (NeuN); format: in vivo, rats; details: perihematomal region; L-UCN 2.5 μg/kg i.p.; day 3 post-ICH
Protocol: as §1

**Q.** For “urocortin (DNPSLSIDLTFHLLRTLLELARTQSQRERAEQNRIIFDSV; ends and bridges not checked; UniProt P55089 83-122, looked up) [UCN, a 40-amino-acid endogenous neuropeptide, belongs to the corticotrophin releasing hormone (CRH) family]”, which brain water content ([1]; cerebellum, L-UCN and H-UCN i.p., among groups) is on record?
**A.** Its brain water content is “No significant differences”.

**Q.** And the brain water content ([1]; cerebellum, UCN 5 μg i.c.v., among groups)?
**A.** Its brain water content is “essentially not affected”.

**Q.** What about the brain water content ([1]; contralateral hemisphere, H-UCN 25 μg/kg i.p.) of the same substance?
**A.** The brain water content was 79.40±0.15%.

**Q.** What about the brain water content ([1]; contralateral hemisphere, L-UCN 2.5 μg/kg i.p.) of the same substance?
**A.** The brain water content was 79.98±0.19%.

**Q.** What about the brain water content ([1]; contralateral hemisphere, UCN 5 μg i.c.v.) of the same substance?
**A.** Its brain water content is 80.08±0.08%.

**Q.** What about the brain water content ([1]; ipsilateral hemisphere, H-UCN 25 μg/kg i.p.) of the same substance?
**A.** Its brain water content is 79.94±0.66%.

**Q.** And the brain water content ([1]; ipsilateral hemisphere, L-UCN 2.5 μg/kg i.p.)?
**A.** Its brain water content is 80.60±0.17%.

**Q.** And the brain water content ([1]; ipsilateral hemisphere, UCN 5 μg i.c.v.)?
**A.** Its brain water content is 81.16±0.16%.

**Q.** And the hemorrhagic volume ([2]; L-UCN 2.5 μg/kg i.p., day 1 post-ICH, vs ICH+Saline)?
**A.** The hemorrhagic volume was “not significantly different”.

**Q.** And the accumulated hemorrhagic volume ([2]; UCN 5 μg i.c.v., 24 h post-ICH, vs ICH+saline)?
**A.** The accumulated hemorrhagic volume was “not significantly different”.

**Q.** And the “Evans blue dye concentration” value ([3]; cerebellum, contralateral cerebral cortex and striatum, L-UCN 2.5 μg/kg i.p., day 3)?
**A.** The value was “not changed”.

**Q.** And the “Evans blue dye concentration” value ([3]; contralateral striatum, contralateral and ipsilateral cortices, cerebellum, UCN 5 μg i.c.v., day 3, vs ICH+Saline)?
**A.** The value was “not different”.

**Q.** What about the “Evans blue dye concentration” value ([3]; ipsilateral cortex, L-UCN 2.5 μg/kg i.p., day 3 post-ICH) of the same substance?
**A.** The value was 0.38 ± 0.05 µg/g.

**Q.** What about the “Evans blue dye concentration” value ([3]; ipsilateral striatum, L-UCN 2.5 μg/kg i.p., day 3 post-ICH) of the same substance?
**A.** The value was 1.73 ± 0.36 µg/g.

**Q.** And the Evans blue concentration ([3]; ipsilateral striatum, UCN 5 μg i.c.v., day 3 after ICH)?
**A.** Its Evans blue concentration is 1.24 ± 0.31 µg/g.

**Q.** What about the “number of ED-1+ cells” value [4] of the same substance?
**A.** Its value is 28.50±2.65 cells/6 mm^2.

**Q.** And the “number of OX-42+ microglial cells” value [4]?
**A.** The value was 82.00±22.86 cells/6 mm^2.

**Q.** And the “NeuN+ cells” value [5]?
**A.** The value was 397.00±39.74 cells/6 mm^2.
